Source: US8334315B2, “Substituted aromatic carboxamide and urea derivatives as vanilloid receptor ligands” (Gruenenthal GmbH, priority 2009, dated 2012)

Key:
[1] = target: T1, hVR1 (Homo sapiens, UniProt Q8NER1); test: Functional test on hVR1 after pH stimulus; assay type: cell-based, human being; parameters: key to IC50 (human being) hVR1, pH: agonist / partial agonist / no effect: AG=agonist; pAG=partial agonist; NE=no effect; settings: for inhibition at 10 µM: read-out: IC50 (human being) hVR1, pH: inhibition (as a percentage)
T1 construct: expressed in transfected cells; host or cells: CHO K1 cells (ECACC), stably transfected
T1 sequence (Q8NER1 whole entry): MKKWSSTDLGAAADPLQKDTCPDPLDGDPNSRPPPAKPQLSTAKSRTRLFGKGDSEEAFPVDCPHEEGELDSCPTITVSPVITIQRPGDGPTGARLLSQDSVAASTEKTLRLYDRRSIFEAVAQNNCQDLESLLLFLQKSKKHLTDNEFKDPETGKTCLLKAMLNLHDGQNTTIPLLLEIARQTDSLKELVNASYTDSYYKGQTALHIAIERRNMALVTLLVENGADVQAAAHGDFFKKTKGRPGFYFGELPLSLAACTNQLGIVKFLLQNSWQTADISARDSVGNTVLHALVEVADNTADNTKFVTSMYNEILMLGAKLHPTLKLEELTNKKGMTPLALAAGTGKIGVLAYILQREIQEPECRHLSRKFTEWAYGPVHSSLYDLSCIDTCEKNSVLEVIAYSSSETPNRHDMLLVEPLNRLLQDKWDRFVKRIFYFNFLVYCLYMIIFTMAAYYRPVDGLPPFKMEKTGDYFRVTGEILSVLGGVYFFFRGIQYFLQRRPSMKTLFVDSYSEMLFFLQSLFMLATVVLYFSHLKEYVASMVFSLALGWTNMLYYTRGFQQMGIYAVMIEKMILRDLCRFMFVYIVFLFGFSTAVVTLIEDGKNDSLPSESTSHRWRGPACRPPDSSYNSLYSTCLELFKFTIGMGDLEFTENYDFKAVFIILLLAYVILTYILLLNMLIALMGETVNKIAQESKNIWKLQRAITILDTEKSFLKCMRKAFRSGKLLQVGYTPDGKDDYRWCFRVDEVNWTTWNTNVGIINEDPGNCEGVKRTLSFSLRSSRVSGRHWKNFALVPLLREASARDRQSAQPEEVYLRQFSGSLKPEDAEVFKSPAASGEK

[2] = target: T1, hVR1; test: Functional test on VR1, FLIPR Ca2+ influx in transfected CHO K1 cells, capsaicin; assay type: cell-based, human being; parameters: key to Ki (human being) [nM] Cap: agonist / partial agonist / no effect: AG=agonist; pAG=partial agonist; NE=no effect; settings: for Ki: includes values given in brackets after pAG, read-out: Ki (human being) [nM] Cap
[3] = target: T1, hVR1; test: Functional test on human VR1, NADA (N-arachidonoyl dopamine) stimulus; assay type: cell-based, human being; parameters: key to Ki (human being) NADA: agonist / partial agonist / no effect: AG=agonist; pAG=partial agonist; NE=no effect; settings: for Ki: includes values given in brackets after pAG, read-out: Ki (human being) [nM] NADA
Text: II. Functional Tests Carried Out on the Vanilloid Receptor (VR1)
The agonistic or antagonistic effect of the substances to be tested on the vanilloid receptor 1 (VR1) can also be determined using the following assay. In this assay, the influx of Ca^2+ through the channel is quantified with the aid of a Ca^2+-sensitive dye (type Fluo-4, Molecular Probes Europe BV, Leiden, the Netherlands) in a fluorescent imaging plate reader (FLIPR, Molecular Devices, Sunnyvale, USA).
Chinese hamster ovary cells (CHO K1 cells, European Collection of Cell Cultures (ECACC) United Kingdom) are stably transfected with the VR1 gene. For functional testing, these cells are plated out on poly-D-lysine-coated black 96-well plates having a clear base (BD Biosciences, Heidelberg, Germany) at a density of 25,000 cells/well. The cells are incubated overnight at 37° C. and 5% CO2 in a culture medium (Ham's F12 nutrient mixture, 10% by volume of FCS (foetal calf serum), 18 μg/ml of L-proline). The next day the cells are incubated with Fluo-4 (Fluo-4 2 μM, 0.01% by volume of Pluronic F127, Molecular Probes in HBSS (Hank's buffered saline solution), Gibco Invitrogen GmbH, Karlsruhe, Germany) for 30 minutes at 37° C. Subsequently, the plates are washed three times with HBSS buffer and after further incubation for 15 minutes at RT used for Ca^2+ measurement in a FLIPR assay. The Ca^2+-dependent fluorescence is measured before and after the addition of the substances to be tested (λex wavelength=488 nm, λem=540 nm). Quantification is carried out by measuring the highest fluorescence intensity (FC, fluorescence counts) over time.
The FLIPR protocol consists of 2 substance additions. First the compounds to be tested (10 μM) are pipetted onto the cells and the Ca^2+ influx is compared with the control (capsaicin 10 μM) (% activation based on the Ca^2+ signal after the addition of 10 μM of capsaicin). […]
Desensitising agonists and antagonists led to suppression of the Ca^2+ influx. The % inhibition is calculated compared to the maximum achievable inhibition with 10 μM of capsaicin.
Starting from the percentage displacement caused by different concentrations of the compounds to be tested of general formula I, IC50 inhibitory concentrations which cause a 50-per cent displacement of capsaicin were calculated. Ki values for the test substances were obtained by conversion by means of the Cheng-Prusoff equation (Cheng, Prusoff; Biochem. Pharmacol. 22, 3099-3108, 1973).
NADA=N-arachidonoyl dopamine

[4] = target: T1, hVR1; test: Functional test on human VR1, 45° C. stimulus; assay type: cell-based, human being; parameters: key to IC50 (human being), 45° C.: agonist / partial agonist / no effect: AG=agonist; pAG=partial agonist; NE=no effect; settings: for inhibition at 2 µM: read-out: IC50 (human being), 45° C.: inhibition (as a percentage); for IC50: read-out: IC50 (human being) [nM], 45° C.
[5] = target: T2, rat-species vanilloid receptor 1 (VR1/TRPV1) (Rattus norvegicus, UniProt O35433); test: Functional testing on the vanilloid receptor 1, FLIPR Ca2+ influx in rat DRG cells, capsaicin; assay type: cell-based; settings: capsaicin (Cap); includes values given in brackets after pAG
T2 construct: endogenous in cells; host or cells: primary cells dissociated from rat dorsal root ganglia (DRG), cultured 2-3 days with NGF
T2 sequence (O35433 whole entry): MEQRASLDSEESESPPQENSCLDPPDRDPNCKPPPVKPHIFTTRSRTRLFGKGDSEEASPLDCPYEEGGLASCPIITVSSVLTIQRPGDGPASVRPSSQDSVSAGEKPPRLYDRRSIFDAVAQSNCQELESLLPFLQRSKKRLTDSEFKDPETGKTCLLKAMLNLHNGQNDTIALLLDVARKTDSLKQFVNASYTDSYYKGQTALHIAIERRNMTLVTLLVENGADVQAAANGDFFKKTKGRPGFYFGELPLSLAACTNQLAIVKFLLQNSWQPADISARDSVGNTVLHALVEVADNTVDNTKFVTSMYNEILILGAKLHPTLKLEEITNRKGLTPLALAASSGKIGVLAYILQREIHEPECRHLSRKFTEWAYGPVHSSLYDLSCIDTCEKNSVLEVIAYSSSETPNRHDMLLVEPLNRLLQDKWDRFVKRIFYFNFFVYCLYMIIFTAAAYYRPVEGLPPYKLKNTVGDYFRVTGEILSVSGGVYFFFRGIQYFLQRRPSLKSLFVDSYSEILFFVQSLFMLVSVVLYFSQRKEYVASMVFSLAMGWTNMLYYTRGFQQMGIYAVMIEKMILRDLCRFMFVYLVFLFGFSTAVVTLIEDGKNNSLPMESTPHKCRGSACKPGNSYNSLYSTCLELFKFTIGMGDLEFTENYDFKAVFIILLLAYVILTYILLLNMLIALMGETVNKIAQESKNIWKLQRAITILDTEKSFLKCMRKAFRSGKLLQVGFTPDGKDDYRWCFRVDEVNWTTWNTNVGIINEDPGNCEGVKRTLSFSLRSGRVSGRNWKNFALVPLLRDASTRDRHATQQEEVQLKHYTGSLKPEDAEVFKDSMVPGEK
Text: I. Functional Testing Carried Out on the Vanilloid Receptor 1 (VRI/TRPV1 Receptor)
The agonistic or antagonistic effect of the substances to be tested on the rat-species vanilloid receptor 1 (VR1/TRPV1) can be determined using the following assay. In this assay, the influx of Ca^2+ through the receptor channel is quantified with the aid of a Ca^2+-sensitive dye (type Fluo-4, Molecular Probes Europe BV, Leiden, the Netherlands) in a fluorescent imaging plate reader (FLIPR, Molecular Devices, Sunnyvale, USA).
Complete medium: 50 ml HAMS F12 nutrient mixture (Gibco Invitrogen GmbH, Karlsruhe, Germany) with
10% by volume of FCS (foetal calf serum, Gibco Invitrogen GmbH, Karlsruhe, Germany, heat-inactivated);
2 mM L-glutamine (Sigma, Munich, Germany);
1% by weight of AA solution (antibiotic/antimyotic solution, PAA, Pasching, Austria) and 25 ng/ml NGF medium (2.5 S, Gibco Invitrogen GmbH, Karlsruhe, Germany)
Cell culture plate: Poly-D-lysine-coated, black 96-well plates having a clear base (96-well black/clear plate, BD Biosciences, Heidelberg, Germany) are additionally coated with laminin (Gibco Invitrogen GmbH, Karlsruhe, Germany), the laminin being diluted with PBS (Ca—Mg-free PBS, Gibco Invitrogen GmbH, Karlsruhe, Germany) to a concentration of 100 μg/ml. Aliquots having a laminin concentration of 100 μg/ml are removed and stored at −20° C. The aliquots are diluted with PBS in a ratio of 1:10 to 10 μg/ml of laminin and respectively 50 μL of the solution are pipetted into a recess in the cell culture plate. The cell culture plates are incubated for at least two hours at 37° C., the excess solution is removed by suction and the recesses are each washed twice with PBS. The coated cell culture plates are stored with excess PBS which is not removed until just before the feeding of the cells.
Preparation of the Cells:
The vertebral column is removed from decapitated rats and placed immediately into cold HBSS buffer (Hank's buffered saline solution, Gibco Invitrogen GmbH, Karlsruhe, Germany), i.e. buffer located in an ice bath, mixed with 1% by volume (per cent by volume) of an AA solution (antibiotic/antimyotic solution, PAA, Pasching, Austria). The vertebral column is cut longitudinally and removed together with fasciae from the vertebral canal. Subsequently, the dorsal root ganglia (DRG) are removed and again stored in cold HBSS buffer mixed with 1% by volume of an AA solution. The DRG, from which all blood remnants and spinal nerves have been removed, are transferred in each case to 500 μL of cold type 2 collagenase (PAA, Pasching, Austria) and incubated for 35 minutes at 37° C. After the addition of 2.5% by volume of trypsin (PAA, Pasching, Austria), incubation is continued for 10 minutes at 37° C. After complete incubation, the enzyme solution is carefully pipetted off and 500 μL of complete medium are added to each of the remaining DRG. The DRG are respectively suspended several times, drawn through cannulae No. 1, No. 12 and No. 16 using a syringe and transferred to a 50 ml Falcon tube which is filled up to 15 ml with complete medium. The contents of each Falcon tube are respectively filtered through a 70 μm Falcon filter element and centrifuged for 10 minutes at 1,200 rpm and RT. The resulting pellet is respectively taken up in 250 μL of complete medium and the cell count is determined.
The number of cells in the suspension is set to 3×10^5 per ml and 150 μL of this suspension are in each case introduced into a recess in the cell culture plates coated as described hereinbefore. In the incubator the plates are left for two to three days at 37° C., 5% by volume of CO2 and 95% relative humidity. […]

| SMILES | inhibition at 10 µM [1] [%] | Ki (human being) [nM] Cap: agonist / partial agonist / no effect [2] | Ki ([2]; capsaicin (Cap)) [nM] | Ki (human being) NADA: agonist / partial agonist / no effect [3] | Ki [5] [nM] | Ki [3] [nM] | IC50 [4] [nM] | further results |
| --- | --- | --- | --- | --- | --- | --- | --- | --- |
| CC(C(=O)NCc1cc(C(C)(C)C)nn1-c1cccc(Cl)c1)c1ccc2c(c1)CCN2S(C)(=O)=O (stereo not drawn) [Example 10, N-((3-tert-butyl-1-(3-chlorophenyl)-1H-pyrazol-5-yl)methyl)-2-(1-(methylsulphonyl)indolin-5-yl)propanamide] | 42 | pAG | 75.4 | pAG | – | – | – | inhibition at 2 µM [4]: 6% |
| CC(C)(C)c1cc(CNC(=O)Cc2ccc3c(c2)OCCO3)n(-c2ccc(Cl)cc2)n1 [Example 12, N-((3-tert-butyl-1-(4-chlorophenyl)-1H-pyrazol-5-yl)methyl)-2-(2,3-dihydrobenzo[b][1,4]dioxin-6-yl)acetamide] | – | – | 77.9 | – | 135 | – | – | inhibition at 2 µM ([3]; @ 2 μM, read-out: Ki (human being) NADA column: inhibition (as a percentage)): 58%; inhibition at 2 µM [4]: 18% |
| CC(C(=O)NCc1cc(C(F)(F)F)nn1-c1cccc(Cl)c1)c1cccc2[nH]ncc12 (stereo not drawn) [Example 27, N-((1-(3-chlorophenyl)-3-(trifluoromethyl)-1H-pyrazol-5-yl)methyl)-2-(1H-indazol-4-yl)propanamide] | 13 | – | 1.1 | – | 11.2 | 0.008 | 297 | – |
| CC(C(=O)NCc1cc(C(C)(C)C)nn1-c1cccc(Cl)c1)c1ccc2ocnc2c1 (stereo not drawn) [Example 40, 2-(benzo[d]oxazol-5-yl)-N-((3-tert-butyl-1-(3-chlorophenyl)-1H-pyrazol-5-yl)methyl)propanamide] | – | – | 4.2 | – | 8.4 | 1.1 | – | – |
| CC(C(=O)NCc1cc(C(C)(C)C)nn1-c1cccc(Cl)c1)c1ccc2cc(O)ccc2c1 (stereo not drawn) [Example 49, N-((3-tert-butyl-1-(3-chlorophenyl)-1H-pyrazol-5-yl)methyl)-2-(6-hydroxynaphthalen-2-yl)propanamide] | – | AG | – | AG | – | – | – | IC50 (human being) hVR1, pH: agonist / partial agonist / no effect [1]: AG; IC50 (human being), 45° C.: agonist / partial agonist / no effect [4]: AG |
| CC(C(=O)NCc1cc(C(C)(C)C)nn1-c1cccc(Cl)c1)c1cccc2ccc(O)cc12 (stereo not drawn) [Example 57, N-((3-tert-butyl-1-(3-chlorophenyl)-1H-pyrazol-5-yl)methyl)-2-(7-hydroxynaphthalen-1-yl)propanamide] | 13 | – | 1.6 | – | 4.2 | 0.1 | 25.6 | – |
| CC(C(=O)NCc1cc(C(F)(F)F)nn1-c1ccc(Cl)cc1)c1cccc2cnccc12 (stereo not drawn) [Example 68, N-((1-(4-chlorophenyl)-3-(trifluoromethyl)-1H-pyrazol-5-yl)methyl)-2-(isoquinolin-5-yl)propanamide] | 33 | – | 0.3 | – | – | 0.04 | 245 | – |
| CC(C(=O)NCc1cc(C(C)(C)C)nn1-c1cccc(Cl)c1)c1ccc2cccnc2c1 (stereo not drawn) [Example 71, N-((3-tert-butyl-1-(3-chlorophenyl)-1H-pyrazol-5-yl)methyl)-2-(quinolin-7-yl)propanamide] | – | – | – | – | – | 68.1 | 2710 | inhibition at 10 µM ([2]; CHO-K1, @ 10 μM, capsaicin (Cap), read-out: Ki (human being) Cap column: inhibition (as a percentage)): 18% |
| CC(C)(C)c1cc(CNC(=O)Nc2cccc3cnccc23)n(-c2cccc(Cl)c2)n1 [Example 109, 1-((3-tert-butyl-1-(3-chlorophenyl)-1H-pyrazol-5-yl)methyl)-3-(isoquinolin-5-yl)urea] | – | pAG | 0.2 | pAG | – | – | – | IC50 (human being) hVR1, pH: agonist / partial agonist / no effect [1]: pAG; IC50 (human being), 45° C.: agonist / partial agonist / no effect [4]: pAG |
| CC(C)(C)c1cc(CNC(=O)Nc2cccc3ncccc23)n(-c2cccc(Cl)c2)n1 [Example 111, 1-((3-tert-butyl-1-(3-chlorophenyl)-1H-pyrazol-5-yl)methyl)-3-(quinolin-5-yl)urea] | – | AG | – | AG | – | – | – | IC50 (human being) hVR1, pH: agonist / partial agonist / no effect [1]: AG; IC50 (human being), 45° C.: agonist / partial agonist / no effect [4]: AG |
| CC(C)(C)c1cc(CNC(=O)Nc2cncc3ccccc23)n(-c2cccc(Cl)c2)n1 [Example 112, 1-((3-tert-butyl-1-(3-chlorophenyl)-1H-pyrazol-5-yl)methyl)-3-(isoquinolin-4-yl)urea] | – | – | 7.3 | pAG | 18.2 | 6.4 | – | – |
| CC(C)(C)c1cc(CNC(=O)Nc2cnc3ccccc3c2)n(-c2cccc(Cl)c2)n1 [Example 113, 1-((3-tert-butyl-1-(3-chlorophenyl)-1H-pyrazol-5-yl)methyl)-3-(quinolin-3-yl)urea] | – | – | 70.7 | – | – | 33.3 | – | – |
